System: contaminating colony-forming PSCs in unpurified EBs of murine iPSCs
Experiment: Colony formation assay after treatment of unpurified EBs
Type: cell-based
Settings: day 9 to day 16: SM6 1 μM then 5 μM from day 14; puromycin 8 μg/ml
Procedure: Aiming at complete elimination of remaining PSCs in PSC-derived cell aggregates, murine cardiac clusters were pre-purified with 2-4 μg/ml puromycin from day 9 until day 14 of differentiation in order to prevent complete removal of PSCs and then treated with SM6 for 2 days to assess its potential for removal of contaminating PSCs in the absence of puromycin. After treatment, cardiac clusters were dissociated with 0.25% trypsin-EDTA supplemented with 50 U/ml of DNase I and the level of PSC contamination was determined using colony formation assay, flow cytometry for SSEA-1 and RT-PCR for Oct4. In colony formation assays 2×10^5 cells were plated on a 6 cm cell culture dish containing MEF and cultured in maintenance medium supplemented with 1000 U/ml of mLIF for 7-10 days. Developing PSC colonies on MEF plates were quantified and visualized with 1% crystal violet (Fluka Analytical, St. Louis, USA) diluted in methanol (Applichem).
Purifying the whole CM population including GFP-negative CMs in murine PSC-derived EBs was tested with SM6 as well. […] The percentage of CM population in EBs was monitored by flow cytometry and the amount of contaminating PSCs was quantified by colony formation assay as described above. Fluorescence images of PSC-derived cell aggregates were captured with a Zeiss Axiovert 200M fluorescence microscope and analyzed with Zeiss Axiovision 4.5 software. […]

SMILES	reduction of contaminating colony-forming PSCs [%]
Oc1ccccc1CN[C@@H]1CCCC[C@H]1NCc1ccccc1O [SM6, (1R,2R)-N,N′-di(2-hydroxybenzyl)-1,2-diaminocyclohexane]	98.88±1.04
COc1ccc(C[C@H](N)C(=O)N[C@H]2[C@@H](O)[C@H](n3cnc4c(N(C)C)ncnc43)O[C@@H]2CO)cc1 [puromycin, reference compound]	97.55±4.02

Source: patent US11299453B2 (Universität zu Köln, priority 2017, dated 2022)
